Experimental data published in patent publication US20240067651A1 (Biohaven Therapeutics Ltd., priority 2019, published 2024).
Read-outs that look alike come from different tables or passages of the source. Each block holds one compound with its values, some of them ahead of it.

Assays:
[1] = Stability in Simulated Intestinal Fluid (SIF); format: in vitro ADME; design: key: % parent compound remaining relative to 0-minute sample
Summary of the method: (§1)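 2 μg/mL final; SGF + pepsin pH 1.2 or SIF + pancreatin pH 6.8; 37° C, 150 rpm, 0–60 min. ACN quench with propranolol IS, LC-MS/MS. % parent vs 0 min; t1/2 from ln plot.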

Plasma Stability = format: in vitro ADME, human
Summary of the method: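 Parent compound quantified by LC-MS/MS after acetonitrile precipitation, reported as percent of control remaining (triplicate). Incubation: 1 hour, 37° C, fresh human plasma, compound at 1 μM.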

Caco-2 monolayer = assay: Caco-2 Permeability Assay; format: in vitro ADME, human
Summary of the method: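 Bidirectional transport at 37 °C for 90 min, 10 μM donor concentration, with or without Pgp inhibitor, across 21-day Caco-2 monolayers with TEER >600 […] in HEPES-buffered HBSS, pH 7.4. LC-MS/MS of donor and receiver samples gives Papp, B→A/A→B efflux ratio and mass recovery.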

[2] = Stability in Simulated Gastric Fluid (SGF); format: in vitro ADME; design: key: % parent compound remaining relative to 0-minute sample
Summary of the method: as §1

[3] = simulated intestinal fluid, remaining at 1 h
[4] = simulated gastric fluid, remaining at 1 h
[5] = % remaining at 1 h in simulated intestinal fluid
[6] = % remaining at 1 h in human plasma
[7] = % remaining at 1 h in simulated gastric fluid
[8] = % remaining at 1 h, SIF with pancreatin pH 6.8, 2 μg/mL, 37° C.
[9] = % remaining at 1 h, human plasma, 1 μM, 37° C.
[10] = donor 10 μM, 90 minutes, 37° C., direction not given
[11] = % remaining at 1 h, SGF with pepsin pH 1.2, 2 μg/mL, 37° C.
[12] = % remaining after 1 h in simulated intestinal fluid
[13] = % remaining after 1 h in human plasma
[14] = % remaining after 1 h in simulated gastric fluid

Compound: trifluoroacetic acid {4-oxo-1-[2-(propan-2-yloxy)ethyl]-2-sulfanylidene-1H,2H,3H,4H,5H-pyrrolo[3,2-d]pyrimidin-5-yl}methyl N-[2-(2-aminoethoxy)ethyl]carbamate [Example 373]
SIF [1, 3]: 72% remaining
human Plasma stability (Plasma Stability; human plasma, remaining at 1 h): 68% remaining
Caco-2 Papp (Caco-2 monolayer; Caco-2 monolayer): 0.123 ×10⁻⁶ cm/s
SGF [2, 4]: 90% remaining

Compound: CC(C)OCCn1c(=S)[nH]c(=O)c2c1ccn2COC(=O)CCCCNC(=O)[C@@H](N)CCc1ccccc1.O=C(O)C(F)(F)F [Example 24, trifluoroacetic acid {4-oxo-1-[2-(propan-2-yloxy)ethyl]-2-sulfanylidene-1H,2H,3H,4H,5H-pyrrolo [3,2-d]pyrimidin-5-yl} methyl 5-[(2S)-2-amino-4-phenylbutanamido]pentanoate]
SIF [1, 5]: 76% remaining
human Plasma stability (Plasma Stability; [6]): 1% remaining
Caco-2 Papp (Caco-2 monolayer; Caco-2 monolayer): 0.302 ×10⁻⁶ cm/s
SGF [2, 7]: 99% remaining

SIF [1, 8]: 74% remaining
human Plasma stability (Plasma Stability; [9]): 0% remaining
Caco-2 Papp (Caco-2 monolayer; [10]): unstable
SGF [2, 11]: 1% remaining
Compound: CC(C)OCCn1c(=S)[nH]c(=O)c2c1ccn2C(C)OC(=O)OC(C)C (stereo not drawn) [Example 92, 1-{4-oxo-1-[2-(propan-2-yloxy)ethyl]-2-sulfanylidene-1H,2H,3H,4H,5H-pyrrolo[3,2-d]pyrimidin-5-yl}ethyl propan-2-yl carbonate]

Compound: CC(C)C[C@@H](NC(=O)OC(C)(C)C)C(=O)OCCCCC(=O)OCn1c(=O)c2c(ccn2COC(=O)CCCCOC(=O)[C@@H](CC(C)C)NC(=O)OC(C)(C)C)n(CCOC(C)C)c1=S [Example 349, 5-[(3-{[(5-{[(2R)-2-{[(tert-butoxy)carbonyl]amino}-4-methylpentanoyl]oxy}penta-noyl)oxy]methyl}-4-oxo-1-[2-(propan-2-yloxy)ethyl]-2-sulfanylidene-1H,2H,3H,4H,5H-pyrrolo[3,2-d]pyrimidin-5-yl)methoxy]-5-oxopentyl (2R)-2-{[(tert-butoxy)carbonyl]amino}-4-methylpentanoate]
SIF [1, 3]: 8% remaining
human Plasma stability (Plasma Stability; human plasma, remaining at 1 h): 6% remaining
Caco-2 Papp (Caco-2 monolayer; Caco-2 monolayer): 4.99 ×10⁻⁶ cm/s
SGF [2, 4]: 99% remaining

Compound: (2R)-2-amino-4-methyl-N-[2-(2-{[{{4-oxo-1-[2-(propan-2-yloxy)ethyl]-2-sulfanylidene-1H,2H,3H,4H,5H-pyrrolo[3,2-d]pyrimidin-5-yl}methoxy)carbonyl]oxy}ethoxy)eth-yl]pentanamide; trifluoroacetic acid [Example 386]
SIF [1, 3]: 86% remaining
human Plasma stability (Plasma Stability; human plasma, remaining at 1 h): 23% remaining
Caco-2 Papp (Caco-2 monolayer; Caco-2 monolayer): 0.077 ×10⁻⁶ cm/s
SGF [2, 4]: 93% remaining

SIF [1, 3]: 94% remaining
human Plasma stability (Plasma Stability; human plasma, remaining at 1 h): 92% remaining
Caco-2 Papp (Caco-2 monolayer; Caco-2 monolayer): 0.11 ×10⁻⁶ cm/s
SGF [2, 4]: 99% remaining
Compound: 1-tert-butyl 2-{4-oxo-1-[2-(propan-2-yloxy)ethyl]-2-sulfanylidene-1H,2H,3H,4H,5H-pyrrolo[3,2-d]pyrimidin-5-yl}methyl (2R)-pyrrolidine-1,2-dicarboxylate [Example 393]

Compound: CC(C)OCCn1c(=S)[nH]c(=O)c2c1ccn2COC(=O)CCCCNC(=O)[C@@H]1CCCN1C(N)=O.O=C(O)C(F)(F)F [Example 69, trifluoroacetic acid {4-oxo-1-[2-(propan-2-yloxy)ethyl]-2-sulfanylidene-1H,2H,3H,4H,5H-pyrrolo[3,2-d]pyrimidin-5-yl}methyl 5-{[(2S)-1-carbamoylpyrrolidin-2-yl]formamido}pentanoate Caco-2 Papp]
SIF [1, 5]: 94% remaining
human Plasma stability (Plasma Stability; [6]): 7% remaining
Caco-2 Papp (Caco-2 monolayer; Caco-2 monolayer): 0.217 ×10⁻⁶ cm/s
SGF [2, 7]: 84% remaining

Compound: CCCCN(C)C(=O)OCSc1nc(=O)c2c(ccn2COC(=O)N(C)CCCC)n1CCOC(C)C [Example 162, {2-[{{[butyl(methyl)carba-moyl]oxy}methyl)sulfanyl]-4-oxo-1-[2-(propan-2-yloxy)ethyl]-1H,4H,5H-pyrrolo[3,2-d]pyrimidin-5-yl}methyl N-butyl-N-methylcarbamate]
SIF ([1]; % @ 1 h (remaining) in simulated intestinal fluid): 96% @ 1 h
human Plasma stability (Plasma Stability; % @ 1 h (remaining) in human plasma): 96% @ 1 h
Caco-2 Papp (Caco-2 monolayer; Caco-2 monolayer): 28.7 ×10⁻⁶ cm/s
SGF ([2]; % @ 1 h (remaining) in simulated gastric fluid): 98% @ 1 h

Compound: 5-[{[4-(carbamoyloxy)butoxy]carbon-yl}oxy)methyl]-1-[2-(propan-2-yloxy)ethyl]-2-sulfanylidene-1H,2H,3H,4H,5H-pyrrolo[3,2-d]pyrimidin-4-one [Example 411]
SIF [1, 12]: 22% remaining
human Plasma stability (Plasma Stability; [13]): 1% remaining
Caco-2 Papp (Caco-2 monolayer; Caco-2 monolayer): <0.107 ×10⁻⁶ cm/s
SGF [2, 14]: 92% remaining

SIF [1, 12]: 28% remaining
human Plasma stability (Plasma Stability; [13]): 4% remaining
Caco-2 Papp (Caco-2 monolayer; Caco-2 monolayer): <0.107 ×10⁻⁶ cm/s
SGF [2, 14]: 94% remaining
Compound: 15-[2-(propan-2-yloxy)ethyl]-14-sulfanylidene-3,5,9,11-tetraoxa-1,13,15-triazatricyclo[11.5.2.0^{16,19}]icosa 16(19),17-diene-4,10,20-trione [Example 409]

Compound: CC(C)OCCn1c(=S)n(COC(=O)CCCOC(=O)[C@H](N)C(C)C)c(=O)c2c1ccn2COC(=O)CCCOC(=O)[C@H](N)C(C)C.O=C(O)C(F)(F)F.O=C(O)C(F)(F)F [Example 360, bis(trifluoroacetic acid) 4-[(3-{[(4-{[(2R)-2-amino-3-methylbutanoyl]oxy}buta-noyl)oxy]methyl}-4-oxo-1-[2-(propan-2-yloxy)ethyl]-2-sulfanylidene-1H,2H,3H,4H,5H-pyrrolo[3,2-d]pyrimidin-5-yl)methoxy]-4-oxobutyl (2R)-2-amino-3-methylbutanoate]
SIF [1, 3]: 56% remaining
human Plasma stability (Plasma Stability; human plasma, remaining at 1 h): 3% remaining
Caco-2 Papp (Caco-2 monolayer; Caco-2 monolayer): <0.628 ×10⁻⁶ cm/s
SGF [2, 4]: 46% remaining

Compound: CC(C)C[C@H](NC(=O)OC(C)(C)C)C(=O)OCCCCC(=O)OCn1c(=O)c2c(ccn2COC(=O)CCCCOC(=O)[C@H](CC(C)C)NC(=O)OC(C)(C)C)n(CCOC(C)C)c1=S [Example 344, 5-[(3-{[(5-{[(2S)-2-{[(tert-butoxy)carbonyl]amino}-4-methylpentanoyl]oxy}penta-noyl)oxy]methyl}-4-oxo-1-[2-(propan-2-yloxy)ethyl]-2-sulfanylidene-1H,2H,3H,4H,5H-pyrrolo[3,2-d]pyrimidin-5-yl)methoxy]-5-oxopentyl (2S)-2-{[(tert-butoxy)carbonyl]amino}-4-methylpentanoate]
SIF ([1]; % remaining @ 1 h): 26% remaining
human Plasma stability (Plasma Stability; % remaining @ 1 h): 28% remaining
Caco-2 Papp (Caco-2 monolayer; Caco-2): 2.46 ×10⁻⁶ cm/s
SGF ([2]; % remaining @ 1 h): 100% remaining

SIF [1, 8]: 1%
human Plasma stability (Plasma Stability; [9]): 2%
Caco-2 Papp (Caco-2 monolayer; unit inferred): 13.9 ×10⁻⁶ cm/s
SGF [2, 11]: 100%
Compound: COCCOCCOC(=O)OCn1c(=O)c2c(ccn2COC(=O)OCCOCCOC)n(CCOC(C)C)c1=S [Example 106, {3-[{{[2-(2-methoxyethoxy)ethoxy]carbonyl}oxy)methyl]-4-oxo-1-[2-(propan-2-yloxy)ethyl]-2-sulfanylidene-1H,2H,3H,4H,5H-pyrrolo[3,2-d]pyrimidin-5-yl} methyl 2-(2-methoxyethoxy)ethyl carbonate]

Compound: {4-oxo-1-[2-(propan-2-yloxy)ethyl]-2-sulfanylidene-1H,2H,3H,4H,5H-pyrrolo[3,2-d]pyrimidin-5-yl}methyl (2R)-2-{[(tert-butoxy)carbonyl]amino}propanoate [Example 291]
SIF ([1]; % remaining @ 1 h): 30% @ 1 h
human Plasma stability (Plasma Stability; % remaining @ 1 h): 0% @ 1 h
Caco-2 Papp (Caco-2 monolayer): 21.9 ×10⁻⁶ cm/s
SGF ([2]; % remaining @ 1 h): 66% @ 1 h

Compound: {4-oxo-1-[2-(propan-2-yloxy)ethyl]-2-sulfanylidene-1H,2H,3H,4H,5H-pyrrolo[3,2-d]pyrimidin-5-yl}methyl 2-{[(tert-butoxy)carbonyl](methyl)amino}acetate [Example 395]
SIF [1, 12]: 23% remaining
human Plasma stability (Plasma Stability; [13]): 1% remaining
Caco-2 Papp (Caco-2 monolayer; Caco-2 monolayer): 14.4 ×10⁻⁶ cm/s
SGF [2, 14]: 97% remaining

SIF [1, 8]: 89%
human Plasma stability (Plasma Stability; [9]): 99%
Caco-2 Papp (Caco-2 monolayer; [10]): 41.9 ×10⁻⁶ cm/s
SGF [2, 11]: 84%
Compound: CC(C)OCCn1c(=S)[nH]c(=O)c2c1ccn2COC(=O)[C@H]1CCCN1C(=O)OC(C)(C)C [Example 3, 1-tert-butyl 2-{4-oxo-1-[2-(propan-2-yloxy)ethyl]-2-sulfanylidene-1H,2H,3H,4H,5H-pyrrolo[3,2-d]pyrimidin-5-yl} methyl (2R)-pyrrolidine-1,2-dicarboxylate]

SIF [1, 12]: 89% remaining
human Plasma stability (Plasma Stability; [13]): 99% remaining
Caco-2 Papp (Caco-2 monolayer; Caco-2 monolayer): 24.6 ×10⁻⁶ cm/s
SGF [2, 14]: 99% remaining
Compound: 5-{({2-[2-(carbamoyloxy)ethoxy]ethoxy}car-bonyl)oxy]methyl}-1-[2-(propan-2-yloxy)ethyl]-2-sulfanylidene-1H,2H,3H,4H,5H-pyrrolo[3,2-d]pyrimidin-4-one [Example 402]

Compound: CC(C)OCCn1c(SCOC(=O)OCCOCCN)nc(=O)c2c1ccn2COC(=O)OCCOCCN.O=C(O)C(F)(F)F.O=C(O)C(F)(F)F [Example 124]
SIF [1, 5]: 57% remaining
human Plasma stability (Plasma Stability; [6]): 28% remaining
Caco-2 Papp (Caco-2 monolayer; Caco-2 monolayer): 1.18 ×10⁻⁶ cm/s
SGF [2, 7]: 67% remaining
